Measured values from patent publication US20230079819A1, “COMPOUNDS AND USES THEREOF” (Foghorn Therapeutics Inc., priority 2019, published 2023).

Key:
BRG-1 = target: T1, BRG-1 (Homo sapiens, UniProt P51532); experiment: ATPase catalytic activity of BRG-1, ADP-Glo in vitro biochemical assay; conditions: ATPase catalytic activity, 30 nM BRG-1, 400 μM ATP, read-out: BRG1 IP50
T1 construct: made in house; host or cells: High Five insect cells

BRM = target: T2, BRM (Homo sapiens, UniProt P51531); experiment: ATPase catalytic activity of BRM, ADP-Glo in vitro biochemical assay; conditions: ATPase catalytic activity, 30 nM BRM, 400 μM ATP, read-out: BRM IP50
T2 construct: made in house; host or cells: High Five insect cells
T2 sequence (P51531 whole entry): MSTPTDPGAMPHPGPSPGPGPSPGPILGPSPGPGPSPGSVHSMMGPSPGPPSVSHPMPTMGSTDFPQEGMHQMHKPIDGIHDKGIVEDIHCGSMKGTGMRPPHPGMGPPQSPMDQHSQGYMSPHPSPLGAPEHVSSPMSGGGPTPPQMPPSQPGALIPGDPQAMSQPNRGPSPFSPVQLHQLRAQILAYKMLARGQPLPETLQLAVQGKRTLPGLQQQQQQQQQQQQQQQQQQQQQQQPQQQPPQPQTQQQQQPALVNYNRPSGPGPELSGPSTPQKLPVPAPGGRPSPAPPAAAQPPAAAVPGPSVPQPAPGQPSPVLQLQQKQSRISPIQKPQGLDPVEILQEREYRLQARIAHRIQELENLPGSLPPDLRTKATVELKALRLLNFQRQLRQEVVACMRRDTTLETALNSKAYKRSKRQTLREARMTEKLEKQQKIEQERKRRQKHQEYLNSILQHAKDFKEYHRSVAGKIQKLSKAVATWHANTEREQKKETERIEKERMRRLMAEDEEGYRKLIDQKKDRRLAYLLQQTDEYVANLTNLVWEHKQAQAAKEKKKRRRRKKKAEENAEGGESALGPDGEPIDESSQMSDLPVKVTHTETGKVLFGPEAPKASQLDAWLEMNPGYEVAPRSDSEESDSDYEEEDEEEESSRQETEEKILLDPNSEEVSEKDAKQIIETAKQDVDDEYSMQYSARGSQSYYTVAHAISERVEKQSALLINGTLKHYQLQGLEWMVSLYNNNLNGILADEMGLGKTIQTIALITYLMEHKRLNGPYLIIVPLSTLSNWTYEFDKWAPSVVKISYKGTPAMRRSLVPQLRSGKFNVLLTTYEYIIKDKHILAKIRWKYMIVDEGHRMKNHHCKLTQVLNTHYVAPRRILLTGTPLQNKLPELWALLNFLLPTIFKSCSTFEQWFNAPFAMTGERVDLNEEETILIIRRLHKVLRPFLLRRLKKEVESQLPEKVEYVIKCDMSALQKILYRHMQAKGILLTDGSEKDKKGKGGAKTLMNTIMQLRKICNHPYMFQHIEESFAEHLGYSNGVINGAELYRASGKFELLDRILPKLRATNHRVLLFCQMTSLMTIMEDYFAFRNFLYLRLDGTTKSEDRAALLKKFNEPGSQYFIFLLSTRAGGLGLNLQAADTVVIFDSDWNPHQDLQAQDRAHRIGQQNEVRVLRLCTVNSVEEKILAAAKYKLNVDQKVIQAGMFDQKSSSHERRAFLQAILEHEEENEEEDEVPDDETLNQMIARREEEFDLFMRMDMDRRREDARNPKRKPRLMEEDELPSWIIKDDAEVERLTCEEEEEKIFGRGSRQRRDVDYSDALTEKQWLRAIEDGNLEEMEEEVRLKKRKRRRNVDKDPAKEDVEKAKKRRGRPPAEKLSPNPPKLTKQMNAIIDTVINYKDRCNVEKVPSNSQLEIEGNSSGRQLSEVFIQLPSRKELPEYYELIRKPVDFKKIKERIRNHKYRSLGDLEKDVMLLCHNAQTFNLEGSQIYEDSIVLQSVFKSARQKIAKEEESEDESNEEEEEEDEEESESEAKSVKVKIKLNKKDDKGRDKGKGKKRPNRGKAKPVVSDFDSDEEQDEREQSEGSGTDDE

T1 sequence (P51532 whole entry): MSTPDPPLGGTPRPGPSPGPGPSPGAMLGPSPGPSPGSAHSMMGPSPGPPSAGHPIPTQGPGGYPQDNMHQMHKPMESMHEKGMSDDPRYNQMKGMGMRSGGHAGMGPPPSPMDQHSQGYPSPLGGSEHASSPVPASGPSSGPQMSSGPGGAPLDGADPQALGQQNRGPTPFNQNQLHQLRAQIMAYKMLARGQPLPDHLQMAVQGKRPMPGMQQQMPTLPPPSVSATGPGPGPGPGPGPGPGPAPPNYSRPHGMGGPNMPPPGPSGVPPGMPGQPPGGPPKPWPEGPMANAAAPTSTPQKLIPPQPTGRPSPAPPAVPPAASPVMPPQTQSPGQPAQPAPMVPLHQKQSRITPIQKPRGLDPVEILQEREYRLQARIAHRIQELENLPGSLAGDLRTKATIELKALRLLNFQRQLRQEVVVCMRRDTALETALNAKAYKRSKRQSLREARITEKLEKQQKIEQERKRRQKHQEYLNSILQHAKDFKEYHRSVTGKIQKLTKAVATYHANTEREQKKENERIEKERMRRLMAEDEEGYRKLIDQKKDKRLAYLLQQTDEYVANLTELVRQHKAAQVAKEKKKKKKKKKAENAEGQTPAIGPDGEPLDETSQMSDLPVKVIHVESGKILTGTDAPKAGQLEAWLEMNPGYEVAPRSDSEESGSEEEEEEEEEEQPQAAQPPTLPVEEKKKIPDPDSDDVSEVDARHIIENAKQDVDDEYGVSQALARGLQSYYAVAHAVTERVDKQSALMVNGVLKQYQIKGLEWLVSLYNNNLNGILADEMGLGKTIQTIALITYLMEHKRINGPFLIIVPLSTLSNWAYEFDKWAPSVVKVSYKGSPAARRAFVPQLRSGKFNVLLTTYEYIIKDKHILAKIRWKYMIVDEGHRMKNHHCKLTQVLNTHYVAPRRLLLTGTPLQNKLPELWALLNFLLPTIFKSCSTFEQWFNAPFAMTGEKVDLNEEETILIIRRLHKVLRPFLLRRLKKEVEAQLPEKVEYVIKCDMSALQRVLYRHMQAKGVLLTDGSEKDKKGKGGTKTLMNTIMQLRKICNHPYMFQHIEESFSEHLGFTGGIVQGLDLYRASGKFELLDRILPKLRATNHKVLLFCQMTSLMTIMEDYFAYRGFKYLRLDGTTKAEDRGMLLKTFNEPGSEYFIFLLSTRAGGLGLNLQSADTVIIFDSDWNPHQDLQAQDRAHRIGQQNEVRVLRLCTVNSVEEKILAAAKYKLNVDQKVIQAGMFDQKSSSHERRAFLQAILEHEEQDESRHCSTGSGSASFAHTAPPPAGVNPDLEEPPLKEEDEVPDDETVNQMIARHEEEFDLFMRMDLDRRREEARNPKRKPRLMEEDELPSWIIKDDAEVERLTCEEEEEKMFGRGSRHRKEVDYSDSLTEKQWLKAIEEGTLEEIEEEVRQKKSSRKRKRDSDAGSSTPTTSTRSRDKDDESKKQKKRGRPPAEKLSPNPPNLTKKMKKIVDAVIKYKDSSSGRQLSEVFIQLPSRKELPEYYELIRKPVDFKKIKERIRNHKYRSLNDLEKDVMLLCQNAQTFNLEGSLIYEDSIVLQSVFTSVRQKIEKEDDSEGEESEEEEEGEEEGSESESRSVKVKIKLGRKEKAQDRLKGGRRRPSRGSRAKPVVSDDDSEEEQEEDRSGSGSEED

Structure (SMILES)	IC50 (BRG-1) [nM]	IC50 (BRM) [nM]
COc1cc(-c2csc(NC(=O)CNC(=O)c3ccn(S(C)(=O)=O)c3)n2)ccc1F [Compound 718]	> 10	> 10
CS(=O)(=O)n1ccc(C(=O)NCC(=O)Nc2nc(-c3cc(F)c4c(c3)C(F)(F)CC4)cs2)c1 [Compound 719]	< 10	< 10
CS(=O)(=O)n1ccc(C(=O)NCC(=O)Nc2nc(-c3ccc4c(c3)C(F)(F)CC4)cs2)c1 [Compound 720]	> 10	> 10
COC[C@H](NC(=O)c1ccn(S(C)(=O)=O)c1)C(=O)Nc1nc(-c2cc(Cl)cc(C#N)c2)cs1 [Compound 721]	> 10	> 10
CS(=O)(=O)n1ccc(C(=O)NCC(=O)Nc2nc(-c3cc(Cl)cc(C#N)c3)cs2)c1 [Compound 722]	> 10	> 10
COC[C@H](NC(=O)c1ccn(S(C)(=O)=O)c1)C(=O)Nc1nc(-c2cc(F)cc(OC)c2)cs1 [Compound 726]	< 10	< 10
CC(C)(C)n1ccc(C(=O)NCC(=O)Nc2nc(-c3cccc(N4CC[C@@H]5COC[C@H]5C4)n3)cs2)c1 [Compound 727]	> 10	< 10
COC[C@H](NC(=O)c1ccn(S(C)(=O)=O)c1)C(=O)Nc1nc(-c2ccc3c(c2)OC(F)(F)O3)cs1 [Compound 728]	> 10	> 10
COC[C@H](NC(=O)c1ccn(C2(C#N)CCC2)c1)C(=O)Nc1nc(-c2cccc(N3C[C@@H](C)O[C@@H](C)C3)n2)cs1 [Compound 730]	< 10	< 10
C[C@@H]1CN(c2cccc(-c3csc(NC(=O)CNC(=O)c4ccn(C5(C#N)CCC5)c4)n3)n2)C[C@H](C)O1 [Compound 731]	< 10	< 10
COC[C@H](NC(=O)c1ccn(S(C)(=O)=O)c1)C(=O)Nc1nc(-c2ccc3c(c2)C(F)(F)CC3)cs1 [Compound 732]	> 10	> 10
COC[C@H](NC(=O)c1ccn(S(C)(=O)=O)c1)C(=O)Nc1nc(-c2cc(F)c3c(c2)C(F)(F)CC3)cs1 [Compound 733]	< 10	< 10
COC[C@H](NC(=O)c1ccn(S(C)(=O)=O)c1)C(=O)Nc1nc(-c2cc(C)cc(N3C[C@@H](C)O[C@@H](C)C3)n2)cs1 [Compound 734]	< 10	< 10
COC[C@H](NC(=O)c1ccn(S(C)(=O)=O)c1)C(=O)Nc1nc(-c2ccc3c(c2)CCN3C)cs1 [Compound 735]	> 10	> 10
C[C@@H]1CN(c2cccc(-c3csc(NC(=O)CNC(=O)c4ccn(C5(CF)COC5)c4)n3)n2)C[C@H](C)O1 [Compound 736]	< 10	< 10
C[C@@H]1CN(c2cccc(-c3csc(NC(=O)CNC(=O)c4ccn(C5(C(F)F)CC5)c4)n3)n2)C[C@H](C)O1 [Compound 737]	< 10	< 10
COC[C@H](NC(=O)c1ccn(S(C)(=O)=O)c1)C(=O)Nc1nc(-c2cc(F)cc(-c3cnn(C)n3)c2)cs1 [Compound 738]	< 10	< 10
COC[C@H](NC(=O)c1ccn(C(C)(C)C#N)c1)C(=O)Nc1nc(-c2cc(F)cc(-c3cnn(C)n3)c2)cs1 [Compound 739]	< 10	< 10
COC[C@H](NC(=O)c1ccn(C(C)(C)C#N)c1)C(=O)Nc1nc(-c2cc(C)cc(N3C[C@@H](C)O[C@@H](C)C3)n2)cs1 [Compound 740]	< 10	< 10
CS(=O)(=O)n1ccc(C(=O)NCC(=O)Nc2nc(-c3cccc(C45CCOCC4C5)c3)cs2)c1 (stereo not drawn) [Compound 743]	> 10	> 10
CC(C)(C)n1ccc(C(=O)NCC(=O)Nc2nc(-c3cccc(C45CCOCC4C5)c3)cs2)c1 (stereo not drawn) [Compound 744]	> 10	> 10
CS(=O)(=O)n1ccc(C(=O)NCC(=O)Nc2nc(-c3cccc(N4CC[C@H]5COC[C@@H]5C4)n3)cs2)c1 [Compound 745]	< 10	< 10
CS(=O)(=O)n1ccc(C(=O)NCC(=O)Nc2nc(-c3cccc(N4CC[C@@H]5COC[C@H]5C4)n3)cs2)c1 [Compound 746]	< 10	< 10
C[C@@H]1CN(c2cccc(-c3csc(NC(=O)CNC(=O)c4ccn(C(C)(C)C(F)F)c4)n3)n2)C[C@H](C)O1 [Compound 748]	< 10	< 10
CC(F)C(C)(F)n1ccc(C(=O)NCC(=O)Nc2nc(-c3cccc(N4C[C@@H](C)O[C@@H](C)C4)n3)cs2)c1 (stereo partly drawn) [Compound 749]	> 100	> 100
CS(=O)(=O)n1ccc(C(=O)NCC(=O)Nc2nc(-c3cccc(C45CCOCC4C5)n3)cs2)c1 (stereo not drawn) [Compound 750, 1-methylsulfonyl-N-[2-[[4-[6-(3-oxabicyclo[4.1.0]heptan-6-yl)-2-pyridyl]thiazol-2-yl]amino]-2-oxo-ethyl]pyrrole-3-carboxamide]	> 10	> 10

Structure (SMILES)	IC50 (BRG-1) [nM]	IC50 (BRM) [nM]
CC(C)(C)n1ccc(C(=O)NCC(=O)Nc2nc(-c3cccc(C45CCOCC4C5)n3)cs2)c1 (stereo not drawn) [Compound 751]	> 10	> 10
COC[C@H](NC(=O)c1ccn(S(C)(=O)=O)c1)C(=O)Nc1nc(-c2cccc([C@]34CCOC[C@H]3C4)n2)cs1 [Compound 755]	> 10	> 10
COC[C@H](NC(=O)c1ccn(S(C)(=O)=O)c1)C(=O)Nc1nc(-c2cccc([C@@]34CCOC[C@@H]3C4)n2)cs1 [Compound 756]	> 100	> 10
CN(C)[C@H]1CCN(c2cccc(-c3csc(NC(=O)CNC(=O)c4ccn(S(C)(=O)=O)c4)n3)n2)CC1(F)F [Compound 757]	> 100	> 100
COC[C@H](NC(=O)c1ccn(S(C)(=O)=O)c1)C(=O)Nc1nc(-c2cc(F)c3c(c2)CCN3C)cs1 [Compound 758]	< 10	< 10
COC[C@@H](NC(=O)c1ccn(S(C)(=O)=O)c1)C(=O)Nc1nc(-c2cc(F)c3c(c2)CCN3C)cs1 [Compound 759]	> 10	> 10
CN[C@H]1CCN(c2cccc(-c3csc(NC(=O)CNC(=O)c4ccn(S(C)(=O)=O)c4)n3)n2)CC1(F)F [Compound 760]	> 100	> 100
CN(C)[C@@H]1CCN(c2cccc(-c3csc(NC(=O)CNC(=O)c4ccn(S(C)(=O)=O)c4)n3)n2)CC1(F)F [Compound 762]	> 10	> 10
CN[C@@H]1CCN(c2cccc(-c3csc(NC(=O)CNC(=O)c4ccn(S(C)(=O)=O)c4)n3)n2)CC1(F)F [Compound 763, N-[2-[[4-[6-[(4R)-3,3-difluoro-4-(methylamino)-1-piperidyl]-2-pyridyl]thiazol-2-yl]amino]-2-oxo-ethyl]-1-methylsulfonyl-pyrrole-3-carboxamide]	< 10	< 10
CS(=O)(=O)n1ccc(C(=O)NCC(=O)Nc2nc(-c3cccc(N4CC[C@H]5OCC[C@@H]5C4)n3)cs2)c1 [Compound 764]	< 10	< 10
CCCOC(=O)N1CCC(c2csc(NC(=O)CNC(=O)c3ccn(S(C)(=O)=O)c3)n2)CC1 [Compound 765, propyl 4-[2-[[2-[(1-methylsulfonylpyrrole-3-carbonyl)amino]acetyl]amino]thiazol-4-yl]piperidine-1-carboxylate]	> 100	> 10
CS(=O)(=O)n1ccc(C(=O)NCC(=O)Nc2nc(-c3cccc(N4CC[C@@H]5OCC[C@H]5C4)n3)cs2)c1 [Compound 766]	< 10	< 10
C[C@@H]1CN(c2cccc(-c3csc(NC(=O)[C@H](C)NC(=O)c4ccn(S(C)(=O)=O)c4)n3)n2)C[C@H](C)O1 [Compound 767]	> 10	< 10
C[C@@H]1CN(c2cccc(-c3csc(NC(=O)[C@@H](C)NC(=O)c4ccn(S(C)(=O)=O)c4)n3)n2)C[C@H](C)O1 [Compound 768]	> 100	> 100
C[C@@H]1CN(c2cccc(-c3csc(NC(=O)[C@H](C)NC(=O)c4ccn(C(C)(C)C)c4)n3)n2)C[C@H](C)O1 [Compound 769]	> 10	> 10
CCCOC(=O)N1CCC[C@H](c2csc(NC(=O)CNC(=O)c3ccn(S(C)(=O)=O)c3)n2)C1 [Compound 771]	> 10	> 10
COC[C@H](NC(=O)c1ccn(S(C)(=O)=O)c1)C(=O)Nc1nc(-c2cccc(N3CC[C@H]4COC[C@@H]4C3)n2)cs1 [Compound 772]	< 10	< 10
COC[C@H](NC(=O)c1ccn(S(C)(=O)=O)c1)C(=O)Nc1nc(-c2cccc(N3CC[C@@H]4COC[C@H]4C3)n2)cs1 [Compound 773]	< 10	< 10
COC[C@H](NC(=O)c1ccn(S(C)(=O)=O)c1)C(=O)Nc1nc(-c2cccc(N3CC[C@H]4OCC[C@@H]4C3)n2)cs1 [Compound 774]	< 10	< 10
COC[C@H](NC(=O)c1ccn(S(C)(=O)=O)c1)C(=O)Nc1nc(-c2cccc(N3CC[C@@H]4OCC[C@H]4C3)n2)cs1 [Compound 775]	> 10	< 10
CS(=O)(=O)n1ccc(C(=O)NCC(=O)Nc2nc(-c3cccc(C4CCCOC4)c3)cs2)c1 (stereo not drawn) [Compound 776, 1-methylsulfonyl-N-[2-oxo-2-[[4-(3-tetrahydropyran-3-ylphenyl)thiazol-2-yl]amino]ethyl]pyrrole-3-carboxamide]	> 10	> 10
C[C@@H]1CN(c2cccc(-c3csc(NC(=O)CNC(=O)c4ccn(C(C)(C)C)n4)n3)c2)C[C@H](C)O1 [Compound 777]	> 10	> 10
C[C@@H]1CN(c2cccc(-c3csc(NC(=O)CNC(=O)c4cn(C(C)(C)CO)cn4)n3)n2)C[C@H](C)O1 [Compound 778]	> 100	> 10
Cn1ccc(-c2cccc(-c3csc(NC(=O)CNC(=O)c4cn(C5(C#N)CC5)cn4)n3)c2)n1 [Compound 780]	> 100	> 100
C[C@@H]1CN(c2cccc(-c3csc(NC(=O)CNC(=O)c4cn(C5(C#N)CC5)cn4)n3)n2)C[C@H](C)O1 [Compound 781]	> 100	> 10
